Results taken from patent US20100022646A1, “METHOD OF NEUTRALISING ORGANOBORONATES WITH ACIDS” (priority 2004, published 2010).

Columns and labels:
thrombin [1] = test: IC50 values: percentage reversal of TRI 50c inhibition of thrombin by hydroxy fatty acid; format: biochemical; conditions: thrombin 33.3 ng/ml, TRI 50c 300 nM final, 30 minutes at 37° C., S2238
Protocol: 50 μl thrombin (33.3 ng/ml in assay buffer) and 20 μl TRI 50c (300 nM final) were added to 10 μl assay buffer (100 mM Na orthophosphate (80% Na2HPO4 and 20% NaH2PO4), 200 mM NaCl, 0.5% PEG 6000, 0.02% Na azide, pH 7.5) and incubated for 5 minutes at 37° C. After the incubation period 100 μl of hydroxy fatty acid was added and further incubated for 30 minutes at 37° C. […] Results were expressed as percentage reversal of TRI 50c inhibition.

thrombin [2] = target: T1, thrombin (Homo sapiens, UniProt P00734); test: Thrombin amidolytic assay (FIGS. 1 to 3): neutralisation of TRI 50c inhibition of thrombin; format: biochemical; conditions: for TRI 50c neutralising activity: FIG. 2, cholesterol linoleic acid esters and free linoleic acids, stereoisomers; for neutralising the effect of TRI 50c (thrombin activity restored): added after 100 nM TRI 50c; for neutralising ability against TRI 50c: FIG. 3, over 30 minutes
T1 construct: purchased Haematologic Technologies Inc
Protocol: Peptide boronate inhibitors were synthesised by Trigen Limited. Thrombin was obtained from Haematologic Technologies Inc. Chromogenic substrate was obtained from Quadratech. Linoleic acid analogues were obtained from Cayman Chemicals USA. Buffer reagents were obtained from Merck.
Peptide boronate inhibitor of thrombin (TRI 50c, 100 nM) was incubated with thrombin (33.3 ng/ml) in assay buffer (100 mM sodium phosphate, 200 mM NaCl, 0.5% PEG 6000 and 0.02% sodium azide, pH 7.5) for 5 minutes at 37° C. Test compounds were then added and incubated for various amounts of time prior to the addition of S2238 chromogenic substrate (5 uM). The reaction was followed at […] and 37° C. using a Thermomax kinetic plate reader (Molecular Devices Corporation). Results of the assay are expressed as percentage activities of thrombin relative to that seen in the absence of inhibitor or antidote.

[3] = Neutralisation by cholesteryl linoleate hydroperoxide (residual TRI-50b concentration)
Protocol: Cholesteryl linoleate hydroperoxide (44 μM) was incubated with TRI-50b in the range 0 to 4.9 mM. Samples were taken at timed intervals and the residual TRI-50b concentration was determined by Method C (Materials and Methods).

[4] = Assay for deboronation (LCMS of TGN 255/9(S)-HODE mixture); conditions: TGN 255 6.7 mg/ml, 9(S)-HODE 0.01 mg/ml, 37° C. 30 mins, then room temperature overnight; uv chromatogram and mass
Protocol: This Example relates to a method for detecting the amount of deboronation of a product, TRI 50, in the presence of 9-HODE. A proposed mechanism for the degradation of TRI 50 is shown below.
The thrombin buffer was made up of 100 mM NaOphosphate [80% Na2HPO4 (11.36 g/l anhydrous)+20% NaH2PO4 (2.4 g/l anhydrous)], 200 mM NaCl (11.688 g/l), 0.5% PEG 6000 (5 g/l), 0.02% Na azide (0.2 g/l), pH 7.5.
TGN 255 (20 mg) was dissolved in DMSO (1.9 ml). To this was added thrombin buffer (0.8 ml), followed by 9(S)-HODE (supplied by Cayman Chemical) in thrombin buffer (0.3 ml, 337 uM). The solution was incubated at 37° C. for 30 mins.
Samples of TGN 255 (14 mg/ml in methanol) and Impurity I (5.6 mg/ml in methanol) were prepared as standards. The 9(S)-HODE assay sample was allowed to stand at room temperature overnight and analysed the following day.

IC50 (thrombin [1]) [µM] | Compound | also measured
> 30 | COC(=O)[C@H]1CC2CCC1[C@@H](O)C2 (stereo in doubt) [Methyl 6-hydroxybicyclo[2.2.2]octane-2-carboxylate, reference compound] | –
> 30 | CC1(C)[C@@]2(C)CC[C@]1(C)[C@H](CC(=O)O)[C@H]2O [(−)-Isoborneolacetic Acid, reference compound] | –
> 30 | CCCCC/C=C\C/C=C\C=C\C(O)C/C=C\CCCC(=O)O (racemic) [(+/−)8-HETE] | –
> 30 | CCCCC/C=C\C=C\C(O)CCCCCCCCCC(=O)O (racemic) [(+/−)11-HEDE] | –

More lines, now with the values behind:

Compound | IC50 (thrombin [1]) [µM] | also measured
CCCCC/C=C\C=C\[C@H](O)CCCCCCCC(=O)O [9(R)-HODE] | > 30 | –
CCCCC/C=C\C/C=C\C/C=C\C=C\C(O)CCCC(=O)O (racemic) [(+/−)5-HETE] | > 30 | –
COCCC[C@H](NC(=O)[C@@H]1CCCN1C(=O)[C@@H](Cc1ccccc1)NC(=O)OCc1ccccc1)B(O)O [TRI 50c, Cbz-(R)-Phe-(S)-Pro-(R)-Mpg-B(OH)2, reference compound] | – | thrombin activity as compared with the control (no TRI 50c present) (thrombin [2]; FIG. 1, addition of 100 nM TRI 50c, thrombin 33.3 ng/ml, S2238 substrate): approximately 50%
CC/C=C\C/C=C\C=C\[C@@H](O)CCCCCCCC(=O)O [9(S)-HOTRE] | > 30 | –
CC/C=C\C/C=C\C/C=C\C=C\[C@@H](O)C/C=C\CCCC(=O)O [8(S)-HEPE, 8(S)-hydroxy-5Z, 9E, 11Z, 14Z, 17Z-eicosapentaenoic acid] | 14 | –
CCCCC[C@@H](/C=C/C=C\CCCCCCCC(=O)O)OO [13(S)-HpODE, 13(S)-hydroperoxy-octadecadienoic acid] | – | TRI 50c neutralising activity (thrombin [2]): particularly good
cholesterol hydroperoxylinoleic acid ester [CLOOH] | – | neutralising the effect of TRI 50c (thrombin activity restored) (thrombin [2]; FIG. 1): effective in neutralising the effect of TRI 50c; TRI 50c neutralising activity (thrombin [2]): particularly good; equivalence of neutralisation ([3]; 44 μM cholesteryl linoleate hydroperoxide mixed with TRI-50b): approximately 1 mole/mole; rate of neutralisation of TRI-50b ([3]; 44 μM cholesteryl linoleate hydroperoxide, TRI-50b 0 to 4.9 mM): high rate of neutralisation
CCCCC/C=C\C=C\[C@H](CCCCCCCC(=O)O)OO [9(S)-HpODE, 9-(S)-hydroperoxy-10E,12Z-octadecadienoic acid] | > 30 | –
CCCCC/C=C\C/C=C\C=C\[C@@H](O)CCCCCCC(=O)O [8(S)-HETRE, 8(S)-hydroxy-9E, 11Z, 14Z-eicosatrienoic acid] | 16 | –
CCCCC/C=C\C=C\[C@@H](O)CCCCCCCC(=O)OC1CC[C@@]2(C)C(=CCC3C4CCC(C(C)CCCC(C)C)[C@@]4(C)CCC32)C1 (stereo partly drawn) [9(S)-HODE cholesteryl ester] | 4.4 | TRI 50c neutralising activity (thrombin [2]): particularly good; neutralising ability against TRI 50c (thrombin [2]): very good
9,13- hydroxy cholesterol linoleic acid ester [9/13-CLOH] | – | neutralising the effect of TRI 50c (thrombin activity restored) (thrombin [2]; FIG. 1): effective in neutralising the effect of TRI 50c
CCCCC/C=C\C=C\[C@@H](O)CCCCCCCC(=O)O [9(S)-HODE, 9(S)-hydroxy-10E,12Z-octadecadienoic acid] | 12 | TRI 50c neutralising activity (thrombin [2]): particularly good; neutralising ability against TRI 50c (thrombin [2]): particularly good effect; deboronation/degradation of TGN 255 to Impurity I [4]: degradation has occurred
CCCCC/C=C\C/C=C\C/C=C\C=C\[C@H](CCCC(=O)O)OO [5(S)-HPETE] | 25 | –
CCCCCC=CC=CC(O)CCCCCCCC(=O)O[C@H]1CC[C@@]2(C)C(=CC[C@H]3[C@@H]4CC[C@H]([C@H](C)CCCC(C)C)[C@@]4(C)CC[C@@H]32)C1 (stereo partly shown) [9-CLOH, 9-hydroxy cholesterol linoleic acid ester] | – | neutralising the effect of TRI 50c (thrombin activity restored) (thrombin [2]; FIG. 1): effective in neutralising the effect of TRI 50c
C[C@H]1CCC/C=C/C2C[C@H](O)CC2[C@H](O)/C=C/C(=O)O1 (single isomer, unassigned; (+)) [(+)-Brefeldin A, reference compound] | > 30 | –
CCCCC/C=C\C/C=C\CC(O)C(O)C/C=C\CCCC(=O)O (racemic) [(+/−)8,9-DIHETRE] | > 30 | –
